Measured values: patent US20250195521A1 (Revolution Medicines, Inc., priority 2020, published 2025)
Where two headings read alike, the source gives them in different places.

Assays:
[1] = test system: Capan-1 cells (K-Ras G12V); experiment: CellTiter-Glo cell viability, Capan-1; format: cell-based, human; conditions: Homo sapiens, CAPAN-1, 120 h, K-Ras G12V, 5-day treatment; read-out: Capan-1 Cell Viability IC50
Outline: (§1)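 Viability is read as luminescence after five days of compound exposure, with plates first equilibrated to room temperature for roughly 30 minutes. Each signal is expressed as a percentage of the mean DMSO control, and curves are fitted by four-parameter logistic regression.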

NCI-H358 (K-Ras G12C) = experiment: CellTiter-Glo cell viability assay, NCI-H358; format: cell-based, human; conditions: Homo sapiens, NCI-H358, 120 h
Outline: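 Viability is measured as ATP-dependent luminescence (CellTiter-Glo) five days into compound treatment. Responses are normalized to vehicle (DMSO) wells and fitted by four-parameter logistic regression.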

[2] = target: K-Ras G12C(GMP-PNP) binding to BRAF RBD (Homo sapiens (Human), UniProt P01116+P62937, G12C); experiment: Disruption of BRAF RBD interaction with K-Ras (FRET / MOA assay), K-Ras G12C; format: biochemical; conditions: read-out: KRAS G12C FRET IC50
Sequence of K-Ras G12C(GMP-PNP) binding to BRAF RBD (P01116 other isoform, or with tags, fused parts or gaps G12C): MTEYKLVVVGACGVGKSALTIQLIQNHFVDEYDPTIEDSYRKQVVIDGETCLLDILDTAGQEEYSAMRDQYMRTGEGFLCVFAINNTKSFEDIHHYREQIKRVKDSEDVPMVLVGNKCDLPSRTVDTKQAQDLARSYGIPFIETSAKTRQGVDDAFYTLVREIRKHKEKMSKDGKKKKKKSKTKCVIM
Sequence of K-Ras G12C(GMP-PNP) binding to BRAF RBD (P62937 whole entry): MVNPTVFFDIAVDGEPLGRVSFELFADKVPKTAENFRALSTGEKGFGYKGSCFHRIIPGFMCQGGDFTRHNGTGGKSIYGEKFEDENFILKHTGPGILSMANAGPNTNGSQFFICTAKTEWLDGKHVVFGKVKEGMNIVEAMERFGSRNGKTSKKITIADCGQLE
Outline: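 First, test compounds in a 10-point 3-fold series (30 μM final top) were incubated for 3 hours at 25° C with nucleotide-loaded Ras, cyclophilin A and a BRAF RBD construct. Next, Eu anti-His and allophycocyanin anti-GST detection reagents were added for 1.5 hours. Finally, IC50s were derived from loss of TR-FRET signal against DMSO.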

KRAS G12C = KRAS G12C (Homo sapiens (Human), UniProt P01116+P62937, G12C); experiment: Ras-Raf disruption/FRET/MOA assay (BRAF RBD, Cyclophilin A); format: biochemical; conditions: read-out: KRAS G12C FRET IC50
Sequence of KRAS G12C (P01116-2 other isoform, or with tags, fused parts or gaps G12C): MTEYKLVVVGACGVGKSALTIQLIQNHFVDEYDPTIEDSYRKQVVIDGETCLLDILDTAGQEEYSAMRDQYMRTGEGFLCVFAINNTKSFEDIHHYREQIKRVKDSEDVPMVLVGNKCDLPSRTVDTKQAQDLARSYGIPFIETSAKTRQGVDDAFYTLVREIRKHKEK
Sequence of KRAS G12C (P62937 whole entry): as the sequence (P62937 whole entry) above
Outline: (§2)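 His6-K-Ras-GMPPNP (12.5 nM), GST-BRAF RBD (50 nM) and tagless Cyclophilin A (25 μM) were combined in 25 mM HEPES pH 7.3 with 100 mM NaCl, 5 mM MgCl2, 0.1% BSA and 0.002% Tween20, with compound as a 10-point 3-fold series from 30 μM final, then incubated 3 h at 25° C.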

KRAS G13C = KRAS G13C (Homo sapiens (Human), UniProt P01116+P62937, G13C); experiment: as above; format: biochemical; conditions: read-out: KRAS G13C FRET IC50
Sequence of KRAS G13C (P01116 other isoform, or with tags, fused parts or gaps G13C): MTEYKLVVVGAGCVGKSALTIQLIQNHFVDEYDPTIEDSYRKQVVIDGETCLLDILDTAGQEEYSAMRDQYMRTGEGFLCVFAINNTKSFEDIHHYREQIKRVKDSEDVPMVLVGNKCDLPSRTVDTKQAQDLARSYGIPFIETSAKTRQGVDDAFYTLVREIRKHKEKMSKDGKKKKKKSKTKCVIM
Sequence of KRAS G13C (P62937 whole entry): as the sequence (P62937 whole entry) above
Outline: as §2

KRAS G12S = KRAS G12S (Homo sapiens (Human), UniProt P01116+P62937, G12S); experiment: as above; format: biochemical; conditions: read-out: KRAS G12S FRET IC50
Sequence of KRAS G12S (P01116 other isoform, or with tags, fused parts or gaps G12S): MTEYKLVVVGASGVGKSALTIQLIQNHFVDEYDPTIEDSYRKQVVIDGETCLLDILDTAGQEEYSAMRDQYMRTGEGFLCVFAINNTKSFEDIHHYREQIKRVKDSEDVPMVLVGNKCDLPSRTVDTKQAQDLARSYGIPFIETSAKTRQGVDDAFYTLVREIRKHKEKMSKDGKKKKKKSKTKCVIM
Sequence of KRAS G12S (P62937 whole entry): as the sequence (P62937 whole entry) above
Outline: as §2

KRAS G12V = KRAS G12V (Homo sapiens (Human), UniProt P01116+P62937, G12V); experiment: as above; format: biochemical; conditions: read-out: KRAS G12V FRET IC50
Sequence of KRAS G12V (P01116 other isoform, or with tags, fused parts or gaps G12V): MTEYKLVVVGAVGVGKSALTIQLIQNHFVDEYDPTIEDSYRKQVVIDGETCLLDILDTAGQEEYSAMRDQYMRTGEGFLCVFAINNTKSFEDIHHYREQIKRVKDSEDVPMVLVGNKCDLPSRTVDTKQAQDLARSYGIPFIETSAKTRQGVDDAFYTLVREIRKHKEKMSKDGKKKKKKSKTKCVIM
Sequence of KRAS G12V (P62937 whole entry): as the sequence (P62937 whole entry) above
Outline: as §2

KRAS WT = KRAS WT (Homo sapiens (Human), UniProt P01116+P62937); experiment: as above; format: biochemical; conditions: read-out: KRAS WT FRET data IC50
Sequence of KRAS WT (P01116 other isoform, or with tags, fused parts or gaps): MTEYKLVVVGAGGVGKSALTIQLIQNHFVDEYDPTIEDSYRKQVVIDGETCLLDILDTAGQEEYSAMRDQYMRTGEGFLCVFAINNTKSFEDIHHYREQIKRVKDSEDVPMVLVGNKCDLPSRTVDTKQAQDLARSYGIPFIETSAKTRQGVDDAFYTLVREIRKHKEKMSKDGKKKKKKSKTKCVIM
Sequence of KRAS WT (P62937 whole entry): as the sequence (P62937 whole entry) above
Outline: as §2

KRAS G12D = KRAS G12D (Homo sapiens (Human), UniProt P01116+P62937, G12D); experiment: as above; format: biochemical; conditions: read-out: KRAS G12D FRET IC50
Sequence of KRAS G12D (P01116 other isoform, or with tags, fused parts or gaps G12D): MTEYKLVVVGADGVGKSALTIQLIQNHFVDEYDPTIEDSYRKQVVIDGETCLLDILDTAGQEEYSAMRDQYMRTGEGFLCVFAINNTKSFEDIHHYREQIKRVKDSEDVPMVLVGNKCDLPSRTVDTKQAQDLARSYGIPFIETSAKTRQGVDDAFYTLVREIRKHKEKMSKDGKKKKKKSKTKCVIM
Sequence of KRAS G12D (P62937 whole entry): as the sequence (P62937 whole entry) above
Outline: as §2

KRAS G13D = KRAS G13D (Homo sapiens (Human), UniProt P01116+P62937, G13D); experiment: as above; format: biochemical; conditions: read-out: KRAS G13D FRET data IC50
Sequence of KRAS G13D (P01116 other isoform, or with tags, fused parts or gaps G13D): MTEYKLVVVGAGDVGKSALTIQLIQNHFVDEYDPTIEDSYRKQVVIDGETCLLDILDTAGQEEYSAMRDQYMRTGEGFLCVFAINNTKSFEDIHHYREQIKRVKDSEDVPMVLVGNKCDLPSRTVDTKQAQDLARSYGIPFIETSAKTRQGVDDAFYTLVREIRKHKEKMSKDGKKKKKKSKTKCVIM
Sequence of KRAS G13D (P62937 whole entry): as the sequence (P62937 whole entry) above
Outline: as §2

NRAS G12C = NRAS G12C (Homo sapiens (Human), UniProt P01111+P62937, G12C); experiment: as above; format: biochemical; conditions: read-out: NRAS G12C FRET data IC50
Sequence of NRAS G12C (P01111 whole entry G12C): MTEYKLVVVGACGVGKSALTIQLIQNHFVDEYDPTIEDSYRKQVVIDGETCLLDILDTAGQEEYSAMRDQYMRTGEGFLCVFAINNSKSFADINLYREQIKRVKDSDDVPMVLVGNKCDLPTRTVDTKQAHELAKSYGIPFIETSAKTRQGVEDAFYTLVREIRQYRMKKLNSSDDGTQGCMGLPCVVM
Sequence of NRAS G12C (P62937 whole entry): as the sequence (P62937 whole entry) above
Outline: (§3)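 Measured: compound-facilitated Cyclophilin A:Ras complex blocking RAF RBD binding. Conditions: 12.5 nM Ras-GMPPNP, 50 nM BRAF RBD, 25 μM CypA, 3 h plus 1.5 h detection. Output: IC50 from TR-FRET ratio.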

[3] = test system: NCI-H358 cells (K-Ras G12C); experiment: CellTiter-Glo cell viability, NCI-H358; format: cell-based, human; conditions: Homo sapiens, NCI-H358, 120 h, K-Ras G12C, 5-day treatment; read-out: H358 Cell Viability IC50
Outline: as §1

[4] = test system: K-Ras G12C (NCI-H358 cells); experiment: Potency assay: pERK in NCI-H358 cells; format: cell-based, human; conditions: Homo sapiens; NCI-H358 cells, 4 hours; read-out: pERK EC50 (H358 KRAS G12C)
Outline: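 Cells plated the day before were exposed for 4 h at 37° C, 5% CO2 to a 10-point, 3-fold DMSO dilution series (10 mM top stock), in duplicate. Phospho-ERK was read by AlphaLISA SureFire Ultra or by In-Cell Western with DRAQ5 DNA stain, and IC50 came from a 4-parameter sigmoidal fit.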

NRAS WT = NRAS WT (Homo sapiens (Human), UniProt P01111+P62937); experiment: Ras-Raf disruption/FRET/MOA assay (BRAF RBD, Cyclophilin A); format: biochemical
Sequence of NRAS WT (P01111 whole entry): as the sequence (P01111 whole entry G12C) above, with C12G counted along it
Sequence of NRAS WT (P62937 whole entry): as the sequence (P62937 whole entry) above
Outline: as §3

[5] = 5-day treatment, read-out: H358 Cell Viability assay data (K-Ras G12C, IC50)

IC50 (NCI-H358 (K-Ras G12C); [5]) [µM]	IC50 [2] [µM]	IC50 (KRAS G12C) [µM]	IC50 (KRAS G13C) [µM]	IC50 (KRAS G12S) [µM]	IC50 (KRAS G12V) [µM]	IC50 (KRAS WT) [µM]	IC50 (KRAS G12D) [µM]	IC50 (KRAS G13D) [µM]	IC50 (NRAS G12C) [µM]	IC50 [3] [µM]	EC50 [4] [µM]	IC50 (NRAS WT) [µM]	IC50 (NCI-H358 (K-Ras G12C); read-out: H358 Cell Viability assay data (K-Ras G12C, IC50, uM), 5-day treatment) [µM]	SMILES	IC50 [1] [µM]
0.1 to 1	0.1 to 1	0.1 to 1	0.1 to 1	0.1 to 1	0.1 to 1	0.1 to 1	0.1 to 1	0.1 to 1	0.1 to 1	0.1 to 1				CCn1c(-c2cccnc2[C@H](C)OC)c2c3cc(ccc31)-c1csc(n1)C[C@H](NC(=O)[C@H](C(C)C)N(C)C(=O)N1C[C@@H]3C[C@H]1CN3C)C(=O)N1CCC[C@H](N1)C(=O)OCC(C)(C)C2 [Compound A314]	0.1 to 1
0.1 to 1	0.1 to 1	0.01 to 0.1	0.01 to 0.1	0.1 to 1	0.1 to 1	0.1 to 1	0.1 to 1	0.1 to 1	0.01 to 0.1	0.01 to 0.1				CCn1c(-c2cccnc2[C@H](C)OC)c2c3cc(ccc31)-c1cc(O)cc(c1)C[C@H](NC(=O)[C@H](C(C)C)N(C)C(=O)N1CC(OC)C1)C(=O)N1CCC[C@H](N1)C(=O)OCC(C)(C)C2 [Compound A364]	0.01 to 0.1
		0.01 to 0.1	0.01 to 0.1	0.01 to 0.1	0.01 to 0.1	0.01 to 0.1	0.01 to 0.1	0.01 to 0.1	0.01 to 0.1	0.01 to 0.1	< 5	0.01 to 0.1		CCn1c(-c2cccnc2[C@H](C)OC)c2c3cc(ccc31)-c1cc(O)cc(c1)C[C@H](NC(=O)[C@H](C(C)C)N(C)C(=O)[C@@H]1OCC[C@@H]1c1ccccc1)C(=O)N1CCC[C@H](N1)C(=O)OCC(C)(C)C2 [Compound A415]	0.01 to 0.1
0.01 to 0.1	0.1 to 1	0.01 to 0.1	0.01 to 0.1	0.1 to 1	0.1 to 1	0.1 to 1	0.1 to 1	0.1 to 1	0.1 to 1	0.1 to 1				CCn1c(-c2cccnc2[C@H](C)OC)c2c3cc(ccc31)-c1cc(O)cc(c1)C[C@H](NC(=O)[C@H](C(C)C)N(C)C(=O)[C@H]1OCC[C@H]1N)C(=O)N1CCC[C@H](N1)C(=O)OCC(C)(C)C2 [Compound A420]	0.1 to 1
	0.1 to 1									0.01 to 0.1			0.1 to 1	CCn1c(-c2cccnc2[C@H](C)OC)c2c3cc(ccc31)-c1csc(n1)C[C@H](NC(=O)[C@H](C(C)C)N(C)C(=O)N1CCC[C@@H](N(C)C)CC1)C(=O)N1CCC[C@H](N1)C(=O)OCC(C)(C)C2 [Compound A494]	
0.1 to 1	0.1 to 1									< 0.01	< 5			CCn1c(-c2cc(N3CCN(C)CC3)cnc2[C@H](C)OC)c2c3cc(ccc31)-c1csc(n1)C[C@H](NC(=O)[C@H](C(C)C)N(C)C(=O)[C@@H]1OCC[C@@H]1c1ccccc1)C(=O)N1CCC[C@H](N1)C(=O)OCC(C)(C)C2 [Compound A593]	< 0.01
